The source made the active and inactive calls. The calls are words filed in the database; no cut-off is given here.
How the values were obtained:
HT-29 [1] = assay: Cytotoxicity against human HT-29 cells assessed as cell growth inhibition at 50 uM after 48 to 72 hrs by MTT assay; type: functional, cell-based; details: time 48-72 hrs
RKO = assay: Cytotoxicity against human RKO cells assessed as cell growth inhibition at 50 uM after 24 to 72 hrs by MTT assay; type: functional, cell-based; details: time 24-72 hrs
HT-29 [2] = assay: Cytotoxicity against human HT-29 cells assessed as cell growth inhibition at 50 uM after 24 hrs by MTT assay; type: functional, cell-based
[3] = biological target: T1, P2X purinoceptor 7 (Homo sapiens) (UniProt Q99572); assay: Antagonist activity at human P2X7R expressed in human RKO cells assessed as reduction in ethidium bromide uptake at 100 uM in presence of BzATP; type: cell-based
T1 sequence (whole entry): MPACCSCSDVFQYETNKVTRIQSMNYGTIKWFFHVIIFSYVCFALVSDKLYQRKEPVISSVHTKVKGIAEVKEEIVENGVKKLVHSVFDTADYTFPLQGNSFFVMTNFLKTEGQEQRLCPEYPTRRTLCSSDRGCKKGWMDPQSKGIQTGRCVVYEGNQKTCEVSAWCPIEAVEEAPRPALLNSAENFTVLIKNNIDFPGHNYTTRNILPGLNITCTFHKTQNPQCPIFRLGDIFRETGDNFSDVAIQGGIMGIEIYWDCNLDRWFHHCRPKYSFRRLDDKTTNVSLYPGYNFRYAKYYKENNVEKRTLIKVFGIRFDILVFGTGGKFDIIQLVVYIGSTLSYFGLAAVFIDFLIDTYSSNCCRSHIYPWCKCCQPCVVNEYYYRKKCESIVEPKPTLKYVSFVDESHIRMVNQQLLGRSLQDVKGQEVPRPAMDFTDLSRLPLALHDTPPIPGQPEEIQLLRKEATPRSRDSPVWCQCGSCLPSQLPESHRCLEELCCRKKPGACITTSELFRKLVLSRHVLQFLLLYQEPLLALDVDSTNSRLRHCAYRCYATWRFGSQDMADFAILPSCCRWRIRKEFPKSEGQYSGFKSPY

[4] = biological target: T1, P2X purinoceptor 7 (Homo sapiens); assay: Antagonist activity at human P2X7R expressed in human HT-29 cells assessed as reduction in ethidium bromide uptake at 100 uM in presence of BzATP; type: cell-based; details: filed as antagonist
HUVEC = assay: Cytotoxicity against HUVEC cells assessed as reduction in cell growth inhibition at 50 uM measured after 24 to 72 hrs by MTT assay; type: cell-based; details: human, time 24-72 hrs
HT-29 [5] = assay: Antimigratory activity against human HT-29 cells assessed as reversal of BzATP induced cell migration at 50 uM; type: functional, cell-based
[6] = biological target: T2, P2X purinoceptor 7 (Mus musculus) (UniProt Q9Z1M0); assay: Antagonist activity at mouse P2X7R expressed in mouse CT26 cells assessed as reduction in ethidium bromide uptake by cells at 100 uM in presence of BzATP; type: cell-based
T2 sequence (whole entry): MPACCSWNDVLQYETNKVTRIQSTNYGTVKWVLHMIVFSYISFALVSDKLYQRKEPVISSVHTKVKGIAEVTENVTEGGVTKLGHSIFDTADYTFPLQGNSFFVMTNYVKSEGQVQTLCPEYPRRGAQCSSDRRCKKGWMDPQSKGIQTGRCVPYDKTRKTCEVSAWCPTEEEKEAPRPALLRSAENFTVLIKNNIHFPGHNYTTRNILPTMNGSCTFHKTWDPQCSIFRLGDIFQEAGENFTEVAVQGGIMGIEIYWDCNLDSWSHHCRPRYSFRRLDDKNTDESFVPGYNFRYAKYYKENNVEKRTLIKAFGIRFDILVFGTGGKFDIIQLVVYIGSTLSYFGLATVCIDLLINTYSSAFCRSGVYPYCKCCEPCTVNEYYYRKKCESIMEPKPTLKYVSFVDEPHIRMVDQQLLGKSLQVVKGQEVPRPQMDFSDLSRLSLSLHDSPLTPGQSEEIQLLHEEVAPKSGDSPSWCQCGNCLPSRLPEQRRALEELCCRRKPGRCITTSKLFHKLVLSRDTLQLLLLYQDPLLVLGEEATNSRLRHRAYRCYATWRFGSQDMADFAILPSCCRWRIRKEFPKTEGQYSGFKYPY

| Structure (SMILES) | Activity (HT-29 [1]) | Activity (RKO) | Activity (HT-29 [2]) | Activity [3] | Activity [4] | Activity (HUVEC) | Activity (HT-29 [5]) | Activity [6] |
| --- | --- | --- | --- | --- | --- | --- | --- | --- |
| CCOc1ccc(-n2c(=O)[nH]c3c(C(N)=O)nc(-c4cc(F)ccc4F)nc32)cc1 | Active | inactive | Active | inactive | Active | Toxic | Active |  |
| COc1ccc(CC(=O)NC(N/C(=N/C#N)Nc2cccc3ncccc23)C(C)(C)C)cc1OC (stereo not drawn) | Active | inactive | inactive | inactive | Active |  |  | inactive |
